Test results taken from publication PMC5538626, “Structural and functional analysis of the GABARAP interaction motif (GIM)” (EMBO Reports, 2017).
Ends that are not written are not given here.

Legend:
GABARAP-L1 = molecular target: T1, GABARAP-L1 (Homo sapiens, UniProt Q9H0R8); test: ITC titration of PLEKHM1-LIR peptide into GABARAP-L1; type: binding; details: 25°C, pH 7.0
T1 construct: modified Ub-leader (ubiquitin fusion leader) (N); made in house; host or cells: E. coli NEB T7 Express
Description: (§1) The genes for the truncated LC3A^2–121, LC3C^8–125, GABARAP^2–117 and GABARAP‐L1^2–117 proteins were cloned into pET30ΔSE vector between the BamHI and XhoI sites using previously established protocols 38. The chimeric constructs of the PLEKHM1‐LIR attached to the LC3A, GABARAP and GABARAP‐L1 proteins were prepared by inserting the oligonucleotide sequence corresponding to the PLEKHM1‐LIR peptide (P^629[…]^638) and glycine–serine linker into the BamHI site of the pET30ΔSE vector, placing the PLEKHM1‐LIR at the N‐terminal of the mature chimeric protein (similar to 31, 38). For the expression of human LC3 and GABARAP proteins for ITC and NMR experiments, plasmids with appropriate modified Ub‐leaders in pET vectors were used 39. Gene, encoding PLEKHM1‐LIR peptide, was ordered as synthetic oligonucleotides (Eurofins Genomics GmbH) and cloned into the pET39_Ub63_ vector 39 by NcoI–BamHI restriction sites. After TEV cleavage, the resulting peptide has the amino acid sequence GAMG‐P^629[…]^642, where the first four residues (GAMG) are the cloning artefact.
(§2) The chimeric constructs were expressed as a His‐tag fusion protein in E. coli BL21(DE3) cells. The cells were induced with 0.3 mM IPTG at OD600 0.6 for 16 h at 26°C. The cell pellets were lysed using mechanical sonication in lysis buffer (20 mM Tris–HCl pH 9.0, 100 mM NaCl, 10 mM imidazole, supplemented with 0.1% Triton X‐100). The proteins were purified using Ni‐NTA beads (GE Healthcare) and the His‐tag was cleaved using thrombin (Invitrogen) at room temperature for 16 h. The last step was gel filtration chromatography using a Superdex S200/300 GL column (GE Healthcare). The proteins were concentrated using spin concentrators (Vivaspin). For ITC and NMR studies, the non‐labelled and stable isotopes labelled LC3 and GABARAP proteins were obtained based on the protocols described elsewhere 30, 39. Here, E. coli NEB T7 Express culture transformed with corresponding plasmids were grown till OD600 nm = 1.0 and protein expression was induced with 0.2 mM IPTG. The cultures were incubated at 25°C for 8–12 h before cell harvesting. Isolation and purification procedures were similar to those reported in Ref. 22, 40. Before experiments, all proteins and peptides were equilibrated with a buffer containing 50 mM Na2HPO4, 100 mM NaCl at pH 7.0, and supplied with 5 mM protease inhibitor cocktail.
(§3) The protocol for preparation of non‐labelled and ^13C,^15N‐labelled PLEKHM1‐LIR peptide was slightly modified to achieve highest yield of the peptide. The 50 ml M9 culture was inoculated with NEB T7 cell transformed with pET39_Ub63‐PLEKHM1‐LIR plasmid and grown overnight at 37°. The collected cells were resuspended in 2 l of either LB or M9 media contained 1.5 g ^15N‐labelled NH4Cl and 3.0 g of ^13C‐labelled glucose. The cultures were grown at 37° till A(600 nm) = 0.9 and supplied with 1 mM of IPTG to induce Ub63‐PLEKHM1‐LIR overexpression (3 h at 37°). After that cells were harvested by centrifugation, re‐suspended in buffer contained 50 mM Tris–HCl pH = 7.9, 200 mM NaCl, 5% glycerol, 0.1 mg/ml DNase A and 4 mM protease inhibitor cocktail. After cell lysis by French press, debris was removed by centrifugation and clear supernatant was applied onto the column contained Ni‐NTA Sepharose equilibrated with the loading buffer (50 mM Tris–HCl pH = 7.9, 250 mM NaCl, 1% glycerol and 20 mM imidazole). Elution was performed with 400 mM imidazole in the same buffer. An aliquot of pure Ub63‐PLEKHM1‐LIR fractions was further purified by gel filtration on Superdex75 26 × 60 column for control ITC and analytical size exclusion chromatography experiments, remaining fusion protein was processed with the TEV‐protease and PLEKHM1‐LIR peptide was purified to 95% purity by reverse Ni‐NTA chromatography and followed gel filtration on Superdex75 26 × 60 column. Peak maximum of peptide was detected at […] (void volume 115 ml). Pure peptide was concentrated in Amicon concentrators with cut‐off of 3 kDa (> 95% retention). […]

LC3A = molecular target: T2, LC3A (Homo sapiens, UniProt Q9H492); test: ITC titration of PLEKHM1-LIR peptide into LC3A; type: binding; details: 25°C, pH 7.0
T2 construct: modified Ub-leader (ubiquitin fusion leader) (N); made in house; host or cells: E. coli NEB T7 Express
Description: as §1, §2, §3

[1] = test system: LC3 subfamily proteins (LC3A, LC3B); test: NMR titration of 15N-labelled LC3 proteins with PLEKHM1-LIR peptide; type: binding, human; details: 298 K, 0.18 mM 15N-labelled protein, up to four times peptide excess
Description: All NMR experiments were performed at 298 K on Bruker Avance spectrometers operating at proton frequencies of 500, 600 and 700 MHz. Titration experiments were performed with a 0.18 mM ^15N‐labelled LC3 and GABARAP protein samples to which the non‐labelled PLEKHM1‐LIR peptide was added stepwise until four times excess to LC3 proteins or two times excess to the GABARAP proteins. Backbone HN resonances for selected mATG8 proteins in complex with the PLEKHM1‐LIR peptide were assigned using [^15N‐^1H]‐TROSY versions of 3D HNCACB experiment. For assignment of PLEKHM1‐LIR peptide backbone HN resonances in complexes with the LC3 and GABARAP proteins, [^15N‐^1H]‐TROSY versions of 3D HNCACB experiment and hCcconh‐TOCSY experiment were used.

GABARAP = molecular target: T3, GABARAP (Homo sapiens, UniProt O95166); test: ITC titration of PLEKHM1-LIR peptides into GABARAP; type: binding; details: ITC; for ΔH: VP-ITC, one-site model, 0.4 mM peptide into 0.020 mM protein, 50 mM Na2HPO4, 100 mM NaCl; for K D of GABARAP lower compared to LC3B / specificity GABARAP over LC3B: GABARAP vs LC3B
T3 construct: modified Ub-leader (ubiquitin fusion leader) (N); made in house; host or cells: E. coli NEB T7 Express
T3 sequence (O95166 whole entry, the tested form may be a part): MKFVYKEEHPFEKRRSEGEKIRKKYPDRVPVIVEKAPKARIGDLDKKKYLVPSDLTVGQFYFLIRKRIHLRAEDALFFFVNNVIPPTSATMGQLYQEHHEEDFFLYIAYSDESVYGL
Description: as §1, §2, §3

[2] = VP-ITC, one-site model, 0.4 mM peptide into 0.020 mM protein, 50 mM Na2HPO4, 100 mM NaCl
[3] = 25°C, pH 7.0, listed as PLEKHM1-LIR

T1 sequence (Q9H0R8 whole entry, the tested form may be a part): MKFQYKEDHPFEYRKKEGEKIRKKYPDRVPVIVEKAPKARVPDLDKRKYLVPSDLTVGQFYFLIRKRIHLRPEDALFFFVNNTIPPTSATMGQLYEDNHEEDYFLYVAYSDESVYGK

Sequence: GAMGPQQEDEWVNVQYPD [PLEKHM1‐LIR WT]
- ΔH (GABARAP-L1; [2]): -7.8 ± 0.1 kcal/mol
- KA (GABARAP-L1): 1.3 ± 0.1 ×10^6 M^−1
- N (number of binding sites) (GABARAP-L1): 1.00 ± 0.01
- ΔG (GABARAP-L1): -8.35 kcal/mol
- ΔS (GABARAP-L1): +1.94 cal mol^−1 K^−1
- −T × ΔS (GABARAP-L1): -0.58 kcal/mol
- ΔH (LC3A; [2]): -7 ± 0.2 kcal/mol
- KA (LC3A): 0.24 ± 0.02 ×10^6 M^−1
- N (number of binding sites) (LC3A): 0.98 ± 0.02
- ΔG (LC3A): -7.33 kcal/mol
- ΔS (LC3A): +1.17 cal mol^−1 K^−1
- −T × ΔS (LC3A): -0.35 kcal/mol
- exchange behaviour upon titration, LC3 subfamily [1]: intermediate exchange
- ΔH (GABARAP; 25°C, pH 7.0): -10.6 ± 0.1 kcal/mol
- ΔH (GABARAP; [3]): -10.60 ± 0.1 kcal/mol
- KA (GABARAP; 25°C, pH 7.0): 1.8 ± 0.1 ×10^6 M^−1
- N (number of binding sites) (GABARAP; 25°C, pH 7.0): 1.00 ± 0.01
- ΔG (GABARAP; 25°C, pH 7.0): -8.54 kcal/mol
- ΔS (GABARAP; 25°C, pH 7.0): −6.92 cal mol^−1 K^−1
- −T × ΔS (GABARAP; 25°C, pH 7.0): +2.06 kcal mol^−1
- KA (GABARAP; [3]): 1.8±0.1 ×10^6 M^−1
- ΔG (GABARAP; [3]): -8.54 kcal/mol
- ΔS (GABARAP; [3]): -6.92 cal mol^−1 K^−1
- K D of GABARAP lower compared to LC3A (times) (GABARAP; GABARAP vs LC3A): approximately eight
- K D of GABARAP lower compared to LC3B / specificity GABARAP over LC3B (GABARAP): 11 fold
- K D of GABARAP lower compared to LC3B / specificity GABARAP over LC3B (GABARAP; listed as PLEKHM1‐LIR peptide): approximately 11 fold
